Test results: patent US20210207101A1, “Hybrid Thymus, Methods of Making, and Methods of Using to Induce Xenograft Tolerance, Restore Immunocompetence and Thymic Function” (THE TRUSTEES OF COLUMBIA UNIVERSITY IN THE CITY OF NEW YORK, priority 2018, published 2021)

What was measured:
[1] = test system: human thymopoiesis in grafted thymi; assay: Human immune cell reconstitution after transplantation of 2DG-treated or untreated pig thymi into humanized NSG mice; format: in vivo, mouse; settings: 100 mM 2DG for 12 hours before grafting; mice bled every 2-3 weeks
Method: Using the 2DG treatment to deplete the pig thymocytes and the Hamilton syringe (Method C described above) for injection of human thymic stromal cells, a hybrid thymus was generated and tested in vivo. Specifically, two vials of fetal pig thymus were thawed. After pipetting up and down to release as many thymocytes as possible, half of the pieces were treated with 100 mM 2DG for 12 hours and the other half remained untreated. On the next day, six vials of human fetal thymus were thawed. After pipetting up and down to release as many thymocytes as possible, liberase was used to digest and release the stromal cells and make a single-cell suspension. After depletion of human CD45+ cells using magnetic-activated cell sorting (MACS), 10 million thymic stromal cells were dissolved in 150 μl of cold Matrigel at a concentration of 66,000 cells per μl. Around 10 μl of the cells (around 660,000 thymic stromal cells) were injected into each fetal pig thymus piece (either 2DG-treated and non-treated). The pieces were kept with fine forceps at room temperature for about 2 minutes until the Matrigel solidified. Then, each piece was transferred to a well of a 96-well plate containing medium with 10% human serum. […] Every 2-3 weeks following transplantation, the mice were bled, and the level of human immune cell reconstitution was evaluated.

[2] = test system: pig thymocytes; assay: Ex vivo depletion of thymocytes in pig thymic fragments; format: cell-based; settings: 2DG 100 mM for 12 hours
Source text: There are different strategies to deplete the thymocytes in pig thymic fragments ex vivo, including anti-pig CD3 immunotoxin and complement-mediated toxicity (rabbit serum as source of complements plus anti-pig CD2). However, these two strategies were not effective. […] Results not shown.
[…] The ratio of remaining live double positive CD4 and CD8 cells (DP) or single positive (SP) CD4 (SP-CD4) or SP-CD8 cells on double negative (DN) cells, which contain the stromal cells, was used as the readout.

O=CC[C@@H](O)[C@H](O)[C@H](O)CO [2DG, 2-deoxyglucose]
effect of treatment of pig thymic fragments on human thymopoiesis in grafted thymi [1]: did not affect human thymopoiesis
ratio of remaining live DP or SP-CD4 or SP-CD8 cells on double negative (DN) cells [2]: lowest ratios
